Assay results taken from ChEMBL document CHEMBL1201862, “PubChem BioAssay data set” (2004).
Blank lines part the entries; values can stand above or below the compound they belong to. Activity calls are given as the source filed them.

Legend:
[1] = target: Intestinal-type alkaline phosphatase (Mus musculus, UniProt P24822); assay: PubChem AID 488875; format: functional
[2] = target: T1, Intestinal-type alkaline phosphatase (Homo sapiens, UniProt P09923); assay: activation of human intestinal alkaline phosphatase – biochemical, luminescent, uHTS hits, set 2, dose response (AID 488817); format: functional;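 also: potency of activators that raise enzyme activity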
[3] = target: T1, Intestinal-type alkaline phosphatase; assay: human intestinal alkaline phosphatase activators, dose response, biochemical, luminescence, uHTS hits (AID 463120); format: functional
[4] = target: T2, Alkaline phosphatase, tissue-nonspecific isozyme (Homo sapiens, UniProt P05186); assay: activation of tissue-nonspecific alkaline phosphatase – biochemical, TNAP isozyme, human IAP uHTS hits, selectivity assay for human IAP activator project, dose response (AID 488886); format: functional;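 also: potency of compounds raising TNAP activity as a selectivity check on IAP activators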
T2 sequence (P05186 whole entry): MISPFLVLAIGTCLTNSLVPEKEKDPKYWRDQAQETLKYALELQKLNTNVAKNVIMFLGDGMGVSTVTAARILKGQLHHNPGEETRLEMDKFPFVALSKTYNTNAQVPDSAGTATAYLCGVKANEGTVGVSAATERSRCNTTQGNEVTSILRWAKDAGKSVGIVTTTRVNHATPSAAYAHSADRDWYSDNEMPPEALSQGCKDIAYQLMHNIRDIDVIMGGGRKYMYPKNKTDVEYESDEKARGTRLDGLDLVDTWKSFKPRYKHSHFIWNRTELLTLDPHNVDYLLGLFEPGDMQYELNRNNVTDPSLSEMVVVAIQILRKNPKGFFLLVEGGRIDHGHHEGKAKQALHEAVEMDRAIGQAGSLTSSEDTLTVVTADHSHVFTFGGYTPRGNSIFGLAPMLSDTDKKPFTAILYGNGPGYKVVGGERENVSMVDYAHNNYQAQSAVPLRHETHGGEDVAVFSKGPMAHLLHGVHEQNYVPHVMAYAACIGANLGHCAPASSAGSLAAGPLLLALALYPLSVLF

Vero [5] = assay: inhibition of WNV-induced cytopathic effect – cell-based, CPE readout (AID 1621); format: functional; conditions: Chlorocebus sabaeus
Vero [6] = assay: antiviral protection of cells from WNV – synthesized analogs, SAR follow-up (AID 2238); format: functional, cell-based; conditions: Chlorocebus sabaeus
Vero [7] = assay: Vero cell viability after compound exposure – synthesized analogs, set II, cytotoxicity control for West Nile virus antiviral project, SAR follow-up (AID 2402); format: functional; conditions: Chlorocebus sabaeus
[8] = target: T3, Tyrosine-protein phosphatase non-receptor type 22 (Homo sapiens, UniProt Q9Y2R2); format: functional
T3 sequence (Q9Y2R2 whole entry): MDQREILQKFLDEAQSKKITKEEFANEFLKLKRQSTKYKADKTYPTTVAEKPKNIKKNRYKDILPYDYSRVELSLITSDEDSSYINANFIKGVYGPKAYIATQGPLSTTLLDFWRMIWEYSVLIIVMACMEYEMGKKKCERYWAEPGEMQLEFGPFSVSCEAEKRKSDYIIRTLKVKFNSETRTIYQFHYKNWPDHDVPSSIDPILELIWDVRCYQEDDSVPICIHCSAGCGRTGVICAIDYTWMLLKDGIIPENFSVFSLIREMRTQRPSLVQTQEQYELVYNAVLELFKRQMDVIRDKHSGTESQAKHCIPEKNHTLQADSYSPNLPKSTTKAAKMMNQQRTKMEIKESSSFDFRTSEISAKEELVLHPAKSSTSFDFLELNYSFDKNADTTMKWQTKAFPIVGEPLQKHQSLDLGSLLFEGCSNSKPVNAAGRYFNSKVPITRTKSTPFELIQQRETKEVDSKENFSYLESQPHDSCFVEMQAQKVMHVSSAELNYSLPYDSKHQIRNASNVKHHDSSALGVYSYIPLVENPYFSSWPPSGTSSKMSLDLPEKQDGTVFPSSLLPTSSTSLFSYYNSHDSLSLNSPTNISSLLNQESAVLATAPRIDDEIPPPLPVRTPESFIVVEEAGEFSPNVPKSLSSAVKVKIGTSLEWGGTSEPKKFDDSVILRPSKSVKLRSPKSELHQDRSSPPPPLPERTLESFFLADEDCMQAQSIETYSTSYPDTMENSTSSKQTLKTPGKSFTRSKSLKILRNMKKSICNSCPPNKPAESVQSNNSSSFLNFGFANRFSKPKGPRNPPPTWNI

[9] = target: T3, Tyrosine-protein phosphatase non-receptor type 22; format: functional; remark: listed apart in the source
[10] = target: T4, Tyrosine-protein phosphatase non-receptor type 7 (Homo sapiens, UniProt P35236); format: functional
T4 sequence (P35236 whole entry): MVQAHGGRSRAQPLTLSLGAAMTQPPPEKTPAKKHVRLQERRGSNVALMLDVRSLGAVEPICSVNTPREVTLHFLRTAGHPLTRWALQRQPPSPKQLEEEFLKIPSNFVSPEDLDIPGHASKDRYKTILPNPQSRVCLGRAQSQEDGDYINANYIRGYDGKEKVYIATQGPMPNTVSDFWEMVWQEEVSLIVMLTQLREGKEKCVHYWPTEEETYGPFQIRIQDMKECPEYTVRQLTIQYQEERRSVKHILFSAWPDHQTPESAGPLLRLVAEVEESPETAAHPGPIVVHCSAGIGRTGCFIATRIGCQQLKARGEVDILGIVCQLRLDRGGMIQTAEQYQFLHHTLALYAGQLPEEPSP

[11] = MIN6 cell viability loss – mouse insulinoma, cytotoxicity control, dose response (AID 2122); format: functional;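 also: confirmatory high-throughput counterscreen run to flag cytotoxic compounds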
[12] = decrease of insulin promoter-GFP reporter – imaging, high-content screening, mouse beta cells (AID 1628); format: functional; conditions: MIN6
HEK293 [13] = assay: inhibition of NOD1-driven NF-kB reporter – cell-based, luminescence, uHTS, primary screen (AID 1578); format: functional; conditions: Homo sapiens
HEK293 [14] = assay: cells; format: functional, cell-based; conditions: Homo sapiens
HEK293 [15] = assay: cells; format: functional, cell-based; conditions: Homo sapiens; remark: listed apart in the source
HEK293 [16] = assay: NOD2 signaling inhibitors in MDP-stimulated cells, cell-based, uHTS, luminescence (AID 2001); format: functional; conditions: Homo sapiens
[17] = target: T5, Nucleotide-binding oligomerization domain-containing protein 1 (Homo sapiens, UniProt Q9Y239); assay: blockers of NOD1 pathway activity – revised, SAR follow-up (AID 2333); format: functional
T5 sequence (Q9Y239 whole entry): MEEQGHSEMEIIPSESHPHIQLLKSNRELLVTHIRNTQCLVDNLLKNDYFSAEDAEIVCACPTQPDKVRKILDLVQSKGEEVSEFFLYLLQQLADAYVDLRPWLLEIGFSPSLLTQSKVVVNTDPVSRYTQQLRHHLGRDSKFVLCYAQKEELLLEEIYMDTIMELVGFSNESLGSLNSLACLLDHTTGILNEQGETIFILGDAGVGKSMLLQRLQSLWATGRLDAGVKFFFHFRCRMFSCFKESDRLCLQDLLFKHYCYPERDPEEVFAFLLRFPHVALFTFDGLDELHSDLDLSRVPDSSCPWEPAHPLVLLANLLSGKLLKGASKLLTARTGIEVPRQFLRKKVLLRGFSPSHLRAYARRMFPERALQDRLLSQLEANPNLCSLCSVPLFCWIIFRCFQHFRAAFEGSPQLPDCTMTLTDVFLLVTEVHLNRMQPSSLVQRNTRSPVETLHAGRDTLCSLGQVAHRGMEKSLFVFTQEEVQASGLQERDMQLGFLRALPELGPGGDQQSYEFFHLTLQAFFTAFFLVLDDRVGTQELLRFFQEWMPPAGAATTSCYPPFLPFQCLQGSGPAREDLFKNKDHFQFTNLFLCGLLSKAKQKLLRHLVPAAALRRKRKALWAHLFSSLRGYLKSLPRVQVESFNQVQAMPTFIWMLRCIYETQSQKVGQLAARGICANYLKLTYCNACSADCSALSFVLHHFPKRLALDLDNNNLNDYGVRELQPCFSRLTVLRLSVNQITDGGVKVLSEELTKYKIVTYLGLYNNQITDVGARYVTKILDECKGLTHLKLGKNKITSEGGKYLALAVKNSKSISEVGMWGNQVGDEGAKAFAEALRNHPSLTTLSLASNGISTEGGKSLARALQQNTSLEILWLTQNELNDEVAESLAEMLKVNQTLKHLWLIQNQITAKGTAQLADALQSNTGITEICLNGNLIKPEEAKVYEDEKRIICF

HEK293 [18] = assay: cells; conditions: Homo sapiens
Tumor necrosis factor = Tumor necrosis factor (Homo sapiens, UniProt P01375); assay: analog potency on TNFa NF-kB signaling – cell-based, revised, SAR follow-up (AID 2337); format: functional
[19] = target: Nucleotide-binding oligomerization domain-containing protein 2 (Homo sapiens, UniProt Q9HC29); assay: inhibition of NOD2-driven NF-kB reporter – cell-based, luminescence, uHTS, HEK293 (AID 1566); format: functional
HEK293 [20] = assay: cells; format: functional, cell-based; conditions: Homo sapiens; remark: listed apart in the source

T1 sequence (P09923 whole entry): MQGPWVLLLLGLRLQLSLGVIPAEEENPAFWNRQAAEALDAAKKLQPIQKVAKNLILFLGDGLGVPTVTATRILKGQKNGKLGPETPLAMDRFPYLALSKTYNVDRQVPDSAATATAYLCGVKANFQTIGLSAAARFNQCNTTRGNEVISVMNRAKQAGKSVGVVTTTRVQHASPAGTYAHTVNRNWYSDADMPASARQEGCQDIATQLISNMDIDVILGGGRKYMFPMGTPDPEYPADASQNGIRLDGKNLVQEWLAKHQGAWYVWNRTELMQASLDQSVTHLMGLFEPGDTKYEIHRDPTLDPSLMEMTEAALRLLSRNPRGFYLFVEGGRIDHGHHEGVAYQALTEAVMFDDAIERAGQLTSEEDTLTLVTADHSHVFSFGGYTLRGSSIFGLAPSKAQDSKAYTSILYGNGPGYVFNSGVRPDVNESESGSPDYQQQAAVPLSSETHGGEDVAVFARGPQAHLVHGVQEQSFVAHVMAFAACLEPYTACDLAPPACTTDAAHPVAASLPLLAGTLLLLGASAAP
Sequence of Nucleotide-binding oligomerization domain-containing protein 2 (Q9HC29 whole entry, the tested form may be a part): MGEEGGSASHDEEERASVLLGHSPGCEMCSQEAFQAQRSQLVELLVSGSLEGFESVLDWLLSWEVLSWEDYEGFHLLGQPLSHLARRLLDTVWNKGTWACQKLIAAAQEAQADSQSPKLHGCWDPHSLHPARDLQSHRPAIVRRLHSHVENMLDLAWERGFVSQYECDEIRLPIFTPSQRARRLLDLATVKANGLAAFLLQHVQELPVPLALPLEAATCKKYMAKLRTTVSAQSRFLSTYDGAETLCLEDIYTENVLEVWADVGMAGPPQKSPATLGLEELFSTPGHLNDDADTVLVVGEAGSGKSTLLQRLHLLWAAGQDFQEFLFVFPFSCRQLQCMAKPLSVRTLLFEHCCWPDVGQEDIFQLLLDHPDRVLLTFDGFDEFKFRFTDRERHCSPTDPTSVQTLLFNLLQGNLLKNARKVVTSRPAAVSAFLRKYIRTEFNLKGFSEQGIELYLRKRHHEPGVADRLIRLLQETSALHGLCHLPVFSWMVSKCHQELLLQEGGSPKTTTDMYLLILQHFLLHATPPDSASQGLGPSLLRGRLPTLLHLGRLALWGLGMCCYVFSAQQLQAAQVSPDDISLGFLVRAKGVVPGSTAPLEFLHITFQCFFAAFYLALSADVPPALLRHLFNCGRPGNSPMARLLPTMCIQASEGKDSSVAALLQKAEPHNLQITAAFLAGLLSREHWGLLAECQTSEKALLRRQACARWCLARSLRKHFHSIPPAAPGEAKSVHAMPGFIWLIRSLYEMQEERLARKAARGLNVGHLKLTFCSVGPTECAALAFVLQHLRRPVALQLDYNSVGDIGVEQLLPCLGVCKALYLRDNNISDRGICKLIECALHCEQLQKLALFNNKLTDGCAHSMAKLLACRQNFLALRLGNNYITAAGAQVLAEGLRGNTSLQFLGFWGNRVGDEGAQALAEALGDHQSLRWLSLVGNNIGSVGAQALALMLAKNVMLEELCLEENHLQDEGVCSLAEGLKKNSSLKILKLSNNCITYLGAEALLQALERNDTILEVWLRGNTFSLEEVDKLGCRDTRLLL
Sequence of Tumor necrosis factor (P01375 whole entry, the tested form may be a part): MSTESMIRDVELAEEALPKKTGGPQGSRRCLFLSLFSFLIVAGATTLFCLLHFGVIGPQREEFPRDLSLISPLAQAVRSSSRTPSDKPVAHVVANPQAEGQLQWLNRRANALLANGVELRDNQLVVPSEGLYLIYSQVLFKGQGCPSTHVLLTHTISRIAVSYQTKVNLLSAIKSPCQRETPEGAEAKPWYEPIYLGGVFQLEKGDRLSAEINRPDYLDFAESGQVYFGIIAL
Sequence of Intestinal-type alkaline phosphatase (Mus musculus, UniProt P24822) (P24822 whole entry): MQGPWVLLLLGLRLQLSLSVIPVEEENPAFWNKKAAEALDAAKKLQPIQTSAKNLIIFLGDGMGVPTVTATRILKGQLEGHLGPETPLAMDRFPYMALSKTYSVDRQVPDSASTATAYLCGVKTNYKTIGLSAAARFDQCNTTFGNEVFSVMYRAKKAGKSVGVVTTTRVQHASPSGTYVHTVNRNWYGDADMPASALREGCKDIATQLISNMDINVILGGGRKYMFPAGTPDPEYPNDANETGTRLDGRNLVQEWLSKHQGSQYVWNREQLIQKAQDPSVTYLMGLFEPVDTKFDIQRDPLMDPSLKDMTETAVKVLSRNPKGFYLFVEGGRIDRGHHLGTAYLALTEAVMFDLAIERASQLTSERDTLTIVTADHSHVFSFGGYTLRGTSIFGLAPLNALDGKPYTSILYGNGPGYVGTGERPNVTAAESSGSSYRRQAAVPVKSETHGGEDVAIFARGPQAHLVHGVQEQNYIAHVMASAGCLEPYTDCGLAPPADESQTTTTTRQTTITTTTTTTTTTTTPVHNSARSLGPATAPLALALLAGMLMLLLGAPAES

EC50 [1]: > 100 µM (inactive)
EC50 [2]: 23.6 µM (active)
EC50 [3]: 15.8 µM (active)
EC50 [4]: 23.3 µM (active)
Structure (SMILES): CN(CC(=O)Nc1ccccc1F)CC(=O)Nc1ccc(F)c(F)c1F

Structure (SMILES): O=C(CSc1nc2ccccc2c(=O)n1-c1ccc(F)cc1F)Nc1ccc(N2CCOCC2)cc1
IC50 (Vero [5]): 26.7 µM (active)
IC50 (Vero [6]): 38.1 µM (active)
CC50 (Vero [7]): > 200 µM (active)

IC50 [8]: > 79.4 µM (inactive)
IC50 [9]: > 79.4 µM (inactive)
IC50 [10]: > 79.4 µM (inactive)
Structure (SMILES): CC12CCC(=O)N1c1ccccc1C(=O)N2c1ccccc1 (stereo unspecified)

Structure (SMILES): COc1ccc(NCc2nc3ccccc3n2CCOc2ccc(C)cc2)cc1
IC50 [11]: 4.54 µM (active)
IC50 [12]: 2 µM (active)

Structure (SMILES): Cc1cccc(-n2ncc3c2CCCC3NC(=O)C2(C(N)=O)CC2)c1C (stereo unspecified)
EC50 (HEK293 [13]): 2.53 µM (active)
IC50 (HEK293 [14]): 9.93 µM (active)
IC50 (HEK293 [15]): > 20 µM (inactive)
IC50 (HEK293 [16]): 16.2 µM (inactive)
IC50 [17]: 4.31 µM (active)
IC50 (HEK293 [18]): > 20 µM (inactive)
IC50 (Tumor necrosis factor): 14.5 µM (active)
EC50 [19]: 19.7 µM (active)
IC50 (HEK293 [20]): > 20 µM (inactive)
